Measured values reported in patent US9708286B2, “Ingenol-3-acylates III and ingenol-3-carbamates” (LEO Laboratories Limited, priority 2010, dated 2017).
Where two headings read alike, the source gives them in different places.

Tests used:
Format in all cases: cell-based
[1] = system: Primary human epidermal keratinocytes, HeKa; experiment: HeKa cytokine release (IL-8); details: Homo sapiens, read-out: HeKa cytokine release (IL-8) Rel EC50 range
How it was run: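 Seeded cells exposed to compound dilutions for 6 h at 37° C; IL-8 in supernatant quantified by MSD sandwich electrochemiluminescence immunoassay. Effects normalized to positive control (1.5×10^−7 M PEP0005), four-parameter sigmoidal fit; Rel EC50 is concentration midway between fitted top and bottom.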

[2] = system: PMN's (polymorphonuclear leukocytes); experiment: Neutrophil oxidative burst; details: Leukocyte, 40 min, normalized to 5×10^−7 M PEP0005
How it was run: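 Human buffy-coat neutrophils (2.5×10^5/well) in HBSS with 0.1% BSA, 5 mM glucose treated with compound premixed with 10 μM hydroethidine for 40 min at RT; fluorescence read at 485/579 nm. Normalized to 5×10^−7 M PEP0005; Rel EC50 is midway between fitted top and bottom, Abs EC50 gives 50% of PEP0005 maximum.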

HeLa cells = experiment: Necrosis assay; details: Homo sapiens, 0.5 h, read-out: HeLa necrosis EC50 range
How it was run: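 HeLa cells treated with compound at 10 μM to 400 μM (final) for 30 min at 37° C., viability then measured by PrestoBlue fluorescence (ex 535/em 630 nm). Normalized to 1% DMSO and 400 μM ingenol mebutate controls; AbsEC50 from four-parameter sigmoidal fit.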

[3] = read-out: Neutrophil oxidative burst Rel EC50 range, PMN from buffy coats, 40 min at RT, hydroethidine fluorescence
[4] = HeKa cells, 6 h at 37° C., IL-8 by MSD assay, normalized to 1.5×10^−7 M PEP0005
[5] = PMN from buffy coats, 40 min at RT, hydroethidine fluorescence, read-out: Neutrophil oxidative burst Rel EC50 range
[6] = HeLa cells, 30 min at 37° C., PrestoBlue, AbsEC50, normalized to 400 μM ingenol mebutate

| SMILES | EC50 ([1]; HEKa, 6 h) [nM] | EC50 [2, 3] [nM] | EC50 (HeLa cells; HeLa) [nM] | EC50 [1, 4] [nM] | EC50 [2, 5] [nM] | EC50 (HeLa cells; [6]) [nM] |
| --- | --- | --- | --- | --- | --- | --- |
| COc1ccc2c(c1)c(C(=O)O[C@H]1C(C)=C[C@]34C(=O)[C@@H](C=C(CO)[C@@H](O)[C@]13O)[C@H]1[C@@H](C[C@H]4C)C1(C)C)c(C)n2C [Compound 565, Ingenol 3-(5-methoxy-1,2-dimethyl-indole-3-carboxylate)] | < 20 | < 20 | < 150000 |  |  |  |
| CC1=C[C@]23C(=O)[C@@H](C=C(CO)[C@@H](O)[C@]2(O)[C@H]1OC(=O)c1c(C)nn(CC(F)(F)F)c1C)[C@H]1[C@@H](C[C@H]3C)C1(C)C [Compound 577, Ingenol 3-(3,5-dimethyl-1-(2,2,2-trifluoroethyl)pyrazole-4-carboxylate)] | < 20 | 20 to 100 | 150000 to 350000 |  |  |  |
| CC1=C[C@]23C(=O)[C@@H](C=C(CO)[C@@H](O)[C@]2(O)[C@H]1OC(=O)c1c(C)noc1C)[C@H]1[C@@H](C[C@H]3C)C1(C)C [Compound 508, Ingenol 3-(3-methyl-5-methyl-isoxazole-4-carboxylate)] | < 20 | < 20 | 150000 to 350000 |  |  |  |
| COc1ccccc1-c1noc(C)c1C(=O)O[C@H]1C(C)=C[C@]23C(=O)[C@@H](C=C(CO)[C@@H](O)[C@]12O)[C@H]1[C@@H](C[C@H]3C)C1(C)C [Compound 519, Ingenol 3-(3-(2-methoxyphenyl)-5-methyl-isoxazole-4-carboxylate)] | < 20 | < 20 | < 150000 |  |  |  |
| CC1=C[C@]23C(=O)[C@@H](C=C(CO)[C@@H](O)[C@]2(O)[C@H]1OC(=O)c1cc(C)n(C2CC2)c1C)[C@H]1[C@@H](C[C@H]3C)C1(C)C [Compound 578, Ingenol 3-(1-cyclopropyl-2,5-dimethyl-pyrrole-3-carboxylate)] | < 20 | < 20 | < 150000 |  |  |  |
| CC1=C[C@]23C(=O)[C@@H](C=C(CO)[C@@H](O)[C@]2(O)[C@H]1OC(=O)N(C)[C@@H](C)c1ccccc1)[C@H]1[C@@H](C[C@H]3C)C1(C)C [Compound 716, Ingenol 3-(N-methyl-N—((S)-1-phenethyl)-carbamate)] | < 20 | 20 to 100 | < 150000 |  |  |  |
| CC1=C[C@]23C(=O)[C@@H](C=C(CO)[C@@H](O)[C@]2(O)[C@H]1OC(=O)c1c(-c2ccccc2)c2ccccc2n1C)[C@H]1[C@@H](C[C@H]3C)C1(C)C [Compound 574, Ingenol 3-(1-methyl-3-phenyl-indole-2-carboxylate)] | < 20 | < 20 | < 150000 |  |  |  |
| CCc1onc(C(C)C)c1C(=O)O[C@H]1C(C)=C[C@]23C(=O)[C@@H](C=C(CO)[C@@H](O)[C@]12O)[C@H]1[C@@H](C[C@H]3C)C1(C)C [Compound 547, Ingenol 3-(5-ethyl-3-isopropyl-isoxazole-4-carboxylate)] | < 20 | 20 to 100 | < 150000 |  |  |  |
| CC1=C[C@]23C(=O)[C@@H](C=C(CO)[C@@H](O)[C@]2(O)[C@H]1OC(=O)c1c(-c2ccccc2)nn(C)c1C)[C@H]1[C@@H](C[C@H]3C)C1(C)C [Compound 559, Ingenol 3-(1,5-dimethyl-3-phenyl-pyrazole-4-carboxylate)] | < 20 | < 20 | 150000 to 350000 |  |  |  |
| CC1=C[C@]23C(=O)[C@@H](C=C(CO)[C@@H](O)[C@]2(O)[C@H]1OC(=O)c1nn(C)c2ccccc12)[C@H]1[C@@H](C[C@H]3C)C1(C)C [Compound 506, Ingenol 3-(1-methylindazole-3-carboxylate)] | < 20 | < 20 | < 150000 |  |  |  |
| COCCn1cc(C)c(C(=O)O[C@H]2C(C)=C[C@]34C(=O)[C@@H](C=C(CO)[C@@H](O)[C@]23O)[C@H]2[C@@H](C[C@H]4C)C2(C)C)c1C [Compound 589, Ingenol 3-(1-(2-methoxyethyl)-2,4-dimethyl-pyrrole-3-carboxylate)] | < 20 | 20 to 100 | < 150000 |  |  |  |
| CC1=C[C@]23C(=O)[C@@H](C=C(CO)[C@@H](O)[C@]2(O)[C@H]1OC(=O)c1c(-c2ccccc2C)cnn1C)[C@H]1[C@@H](C[C@H]3C)C1(C)C [Compound 555, Ingenol 3-(4-(2-methylphenyl)-2-methyl-pyrazole-3-carboxylate)] | < 20 | < 20 | < 150000 |  |  |  |
| C/C=C(/C)C(=O)O[C@H]1C(C)=C[C@]23C(=O)[C@@H](C=C(CO)[C@@H](O)[C@]12O)[C@H]1[C@@H](C[C@H]3C)C1(C)C [Ingenol mebutate, Ingenol-3-angelate, reference compound] |  |  |  | < 20 | < 20 | 150000 to 350000 |
| CCc1noc(CC)c1C(=O)O[C@H]1C(C)=C[C@]23C(=O)[C@@H](C=C(CO)[C@@H](O)[C@]12O)[C@H]1[C@@H](C[C@H]3C)C1(C)C [Compound 530, Ingenol 3-(3,5-diethylisoxazole-4-carboxylate)] |  |  |  | < 20 | < 20 | < 150000 |
| CC1=C[C@]23C(=O)[C@@H](C=C(CO)[C@@H](O)[C@]2(O)[C@H]1OC(=O)N(C)C1CCCc2ccccc21)[C@H]1[C@@H](C[C@H]3C)C1(C)C (stereo partly drawn) [Compound 714, Ingenol 3-(N-Methyl-N-tetralin-1-yl-carbamate)] | < 20 | > 100 | < 150000 |  |  |  |
| CC1=C[C@]23C(=O)[C@@H](C=C(CO)[C@@H](O)[C@]2(O)[C@H]1OC(=O)N(C)c1ccccc1F)[C@H]1[C@@H](C[C@H]3C)C1(C)C [Compound 738, Ingenol 3-(N-(2-fluoro-phenyl)-N-methyl-carbamate)] | 20 to 100 | < 20 | 150000 to 350000 |  |  |  |
| CC1=C[C@]23C(=O)[C@@H](C=C(CO)[C@@H](O)[C@]2(O)[C@H]1OC(=O)N1Cc2ccccc2C1)[C@H]1[C@@H](C[C@H]3C)C1(C)C [Compound 745, Ingenol 3-(isoindoline-2-carboxylate)] | < 20 | < 20 | 150000 to 350000 |  |  |  |
| CC1=C[C@]23C(=O)[C@@H](C=C(CO)[C@@H](O)[C@]2(O)[C@H]1OC(=O)c1c(Cl)cnn1C)[C@H]1[C@@H](C[C@H]3C)C1(C)C [Compound 522, Ingenol 3-(4-chloro-2-methyl-pyrazole-3-carboxylate)] | < 20 | < 20 | 150000 to 350000 |  |  |  |
| CC1=C[C@]23C(=O)[C@@H](C=C(CO)[C@@H](O)[C@]2(O)[C@H]1OC(=O)c1ccnn1-c1ccccc1)[C@H]1[C@@H](C[C@H]3C)C1(C)C [Compound 505, Ingenol 3-(2-phenylpyrazole-3-carboxylate)] | < 20 | < 20 | < 150000 |  |  |  |
| CC1=C[C@]23C(=O)[C@@H](C=C(CO)[C@@H](O)[C@]2(O)[C@H]1OC(=O)N1CCCc2ccccc21)[C@H]1[C@@H](C[C@H]3C)C1(C)C [Compound 726, Ingenol 3-(3,4-dihydro-2H-quinoline-1-carboxylate)] | < 20 | 20 to 100 | < 150000 |  |  |  |
| CC1=C[C@]23C(=O)[C@@H](C=C(CO)[C@@H](O)[C@]2(O)[C@H]1OC(=O)c1c2c(nn1C)CCCC2)[C@H]1[C@@H](C[C@H]3C)C1(C)C [Compound 563, Ingenol 3-(2-methyl-4,5,6,7-tetrahydroindazole-3-carboxylate)] | < 20 | < 20 | < 150000 |  |  |  |
| CC1=C[C@]23C(=O)[C@@H](C=C(CO)[C@@H](O)[C@]2(O)[C@H]1OC(=O)N(C)C1CCCCC1)[C@H]1[C@@H](C[C@H]3C)C1(C)C [Compound 709, Ingenol 3-(N-cyclohexyl-N-methyl-carbamate)] | < 20 | < 20 | 150000 to 350000 |  |  |  |
| CC1=C[C@]23C(=O)[C@@H](C=C(CO)[C@@H](O)[C@]2(O)[C@H]1OC(=O)N(C)c1cc(C)n(C)n1)[C@H]1[C@@H](C[C@H]3C)C1(C)C [Compound 721, Ingenol 3-(N-(1,5-dimethylpyrazol-3-yl)-N-methyl-carbamate)] | 20 to 100 | 20 to 100 | > 350000 |  |  |  |
| CC1=C[C@]23C(=O)[C@@H](C=C(CO)[C@@H](O)[C@]2(O)[C@H]1OC(=O)c1sc(C)nc1C)[C@H]1[C@@H](C[C@H]3C)C1(C)C [Compound 527, Ingenol 3-(2,4-dimethylthiazole-5-carboxylate)] | 20 to 100 | < 20 | 150000 to 350000 |  |  |  |
| CC1=C[C@]23C(=O)[C@@H](C=C(CO)[C@@H](O)[C@]2(O)[C@H]1OC(=O)N1CCc2ccccc21)[C@H]1[C@@H](C[C@H]3C)C1(C)C [Compound 727, Ingenol 3-(indoline-1-carboxylate)] | < 20 | < 20 | < 150000 |  |  |  |
